Experiment: Inhibition of lanosterol 14-alpha-demethylase in hamster hepatic microsomes

Compound: CC(=O)N1CCN(c2ccc(OC[C@@H]3CO[C@@](Cn4ccnc4)(c4ccc(Cl)cc4Cl)O3)cc2)CC1 [Nizoral]
- Ki: 25 nM
